Measured values reported in ChEMBL document CHEMBL5303711, “ECBD screening data for assay EOS300108” (2023).
Counter-ions that a name gives are not always drawn. The source made the active and inactive calls. The rule behind the calls is not given here.

assay: Cytotoxicity activity against human HepG2 cells assessed by CellTiter-Glo luminescent cell viability assay.; assay type: toxicity, cell-based; parameters: assay stage confirmatory assay, source tissue liver; conditions: HepG2 cells, read-out: IC50 relative

Compound	CC50
C[C@@H]1COC(Nc2ccc3ncnc(Nc4ccc(OCc5nccs5)c(Cl)c4)c3c2)=N1 [VARLITINIB]	50 µM (inactive)
CN1CCN(Cc2ccc(-c3cnc4[nH]cc(-c5ccc6[nH]ccc6c5)c4c3)cc2)CC1	1.4 µM (active)
COc1ccc(F)c(F)c1C(=O)c1cnc(NC2CCN(S(C)(=O)=O)CC2)nc1N [RG-547]	0.5 µM (active)
CCCS(=O)(=O)N1CCc2ccc(NC(=O)Nc3cccc(OC)c3)cc21	4.9 µM (active)
O=C1NCCN1CCN1CCC(c2cn(-c3ccc(F)cc3)c3ccc(Cl)cc23)CC1 [SERTINDOLE]	2.7 µM (active)
CC(C)c1ccc(CN2CCN(C(=O)CN(C)C(=O)c3ccco3)CC2)cc1	4.4 µM (active)
C[C@H]1Cc2c([nH]c3cc(Cl)c(F)cc23)[C@@]2(N1)C(=O)Nc1ccc(Cl)cc12 [CIPARGAMIN]	10.8 µM (active)
CCN1CCN(CCCNC(=O)c2cccc(NC(=O)c3nnc(COc4ccccc4)s3)c2)CC1	6.9 µM (active)
O=C(Nc1cccc2cccnc12)c1cccc2cn[nH]c12	50 µM (inactive)
NCC1CCN(c2nccc(-c3ccc4ccccc4c3)n2)CC1	4.4 µM (active)
CCn1c(Cn2ncc(Cl)c(Cl)c2=O)nc2cc(F)ccc21	3 µM (active)
Cc1nc(NC(=O)N2CCC[C@H]2C(N)=O)sc1-c1ccnc(C(C)(C)C(F)(F)F)c1 [ALPELISIB]	6.1 µM (active)
CC(C)(C)c1cc(NC(=O)Nc2ccc(Oc3ccnc4[nH]c(=O)cnc34)cc2F)n(-c2ccccc2)n1	0.4 µM (active)
COc1ccc(CCN2CCC(Nc3nc4ccccc4n3Cc3ccc(F)cc3)CC2)cc1 [ASTEMIZOLE]	1.5 µM (active)
NC(=O)Nc1sc(-c2ccccc2)cc1C(N)=O	7.9 µM (active)
Cc1ccn(-c2cc(N3CCN(C(=O)Nc4ccc5c(c4)OCCO5)CC3)ncn2)n1	10.7 µM (active)
CCN(C)C[C@H]1CCN(Cc2ccc(OCc3ccccc3F)nc2)C1	6.7 µM (active)
Cc1nn2c(ncc3c(=O)n(CCN(C)C)ccc32)c1-c1ccc(Cl)cc1	4 µM (active)
CC(=O)Nc1ccc(Nc2nc(C)cc(N3CCCC3)n2)cc1	10.2 µM (active)
COc1cc2c(NC3CCN(C(C)C)CC3)nc(N3CCC(F)(F)CC3)nc2cc1OCCCN1CCCC1	3.1 µM (active)
ON=C1C[C@@H](c2ccc(Cl)cc2)Oc2ccccc21	2.7 µM (active)
COc1cc2c(O)c3c(c(-c4ccc5c(c4)OCO5)c2cc1OC)C(=O)OC3 [DIPHYLLIN]	1.4 µM (active)

Compound	CC50
Cc1ccccc1N1CCN(C(=O)C2CCN(S(=O)(=O)c3ccc4c(c3)OCCCO4)CC2)CC1	1.7 µM (active)
Cc1cc(C)cc(OCCN(C)[C@@H](C)c2nc(N)nc(N(C)C)n2)c1	9 µM (active)
O=C(Cn1ncc(Cl)c(Cl)c1=O)N(Cc1ccco1)CC(F)(F)F	6.6 µM (active)
c1ccc2c(NCCCCCCNc3c4c(nc5ccccc35)CCCC4)c3c(nc2c1)CCCC3	1.2 µM (active)
Cc1occc1C(=O)NC1CCN(CCC(=O)c2ccccc2)CC1	9.5 µM (active)
COc1cc(C(=O)Nn2cnc3ccccc32)cc(Cl)c1OCC(N)=O	8.3 µM (inactive)
COc1ccc(Nc2nccc(-c3ccncc3)n2)cc1	4.7 µM (active)
COc1cc2c(cc1OC)CN(CCc1ccc(NC(=O)c3cc(OC)c(OC)cc3NC(=O)c3cnc4ccccc4c3)cc1)CC2	27.3 µM (inactive)
O=C(COc1ccc(F)cc1)N1CCN(c2ncnc3c(F)cccc23)CC1	9.7 µM (active)
O=[N+]([O-])c1ccc(-c2nc(-c3ccncc3)c(-c3ccc(F)cc3)[nH]2)cc1 [PD-169316]	50 µM (inactive)
c1ccc(-c2nc3n(n2)Cc2ccccc2-3)cc1	2.7 µM (active)
CC1CCN(S(=O)(=O)c2ccc(-c3nnc(C(=O)NCCCN4CCCCCC4)o3)cc2)CC1	15.6 µM (inactive)
N#Cc1ccc(NC(=O)Cn2c(=O)ccn(Cc3ccccc3)c2=O)cc1	13.9 µM (inactive)
O=C(c1c(F)ccc(NS(=O)(=O)N2CC[C@@H](F)C2)c1F)c1c[nH]c2ncc(-c3cnc(C4CC4)nc3)cc12 [PLIXORAFENIB]	5.4 µM (active)
CCS(=O)(=O)c1ncc(Cl)c(C(=O)Nc2ccc(OC)cc2)n1	2.6 µM (active)
CC1(C)CC[C@H](CO)N(CCS(=O)(=O)c2ccc(C#N)cc2)C1	11.7 µM (active)
CCn1nc(C)cc1C(=O)Nc1nc2cc(C#N)ccc2n1CC	4 µM (active)
CN(C)c1cc(CNCc2cccc(OCc3ccccn3)c2)ccn1	15.3 µM (inactive)
Cc1cn(CC(=O)c2ccc(NC(=O)CC(C)C)cc2)cc(Br)c1=O	22.2 µM (inactive)
COc1ccc(C)cc1S(=O)(=O)N1CCCC(C(=O)N2CCN(c3ccccc3F)CC2)C1 (stereo not drawn)	9.9 µM (inactive)
CS(=O)(=O)Nc1ccc(C(=O)N2CCN(CCOc3ccc(Cl)cc3)CC2)cc1	4.6 µM (active)
O=S(=O)(Nc1cc(Sc2nc[nH]n2)c(O)c2ccccc12)c1ccc(Cl)cc1	5.7 µM (active)

Compound	CC50
Nc1ccncc1CCC1CCCCC1	10.7 µM (active)
COc1cc(Nc2c(C#N)cnc3cc(OCCCN4CCN(C)CC4)c(OC)cc23)c(Cl)cc1Cl [BOSUTINIB]	1.8 µM (active)
CCOc1ccc(CN2CCN(C(=O)c3ccc(-c4ncon4)cc3)CC2)cc1	5 µM (active)
C#CCOC1CCN(C(=O)c2ccc(F)c(Br)c2)CC1	8.6 µM (active)
COc1ccc(C[C@H](NC(=O)[C@H](C)NC(=O)CN2CCOCC2)C(=O)N[C@@H](Cc2ccccc2)C(=O)[C@@]2(C)CO2)cc1	0.5 µM (active)
CN(C)C(=O)c1cccc(CN(C)c2ccccc2CO)c1	10.9 µM (active)
CC(=O)N1c2ccc(S(=O)(=O)N3CCC(C(=O)N4CC=C(c5ccccc5)CC4)CC3)cc2CC1C (stereo not drawn)	6.8 µM (active)
COc1ccc(OC2CCN(CC[C@H]3CCCCN3C)CC2)cc1	11.2 µM (inactive)
O=C(/C=C/c1ccc2ccccc2n1)c1ccncc1	1.1 µM (active)
NC(=O)c1c(NC(=O)Cn2ncc(Cl)c(Cl)c2=O)sc2c1CCC2	1.9 µM (active)
O=C(Oc1c(Cl)cc(Cl)c2cccnc12)c1ccco1	8 µM (active)
O=C(NC(NC(=S)Nc1ccc(F)c([N+](=O)[O-])c1)C(Cl)(Cl)Cl)C(c1ccccc1)c1ccccc1 (stereo not drawn)	6.3 µM (active)
CC(C)C[C@H](NC(=O)[C@@H](NC(=O)c1cccc(-c2ccccc2)n1)[C@@H](C)O)B(O)O [DELANZOMIB]	< 0.1 µM (active)
COc1cc(N2CCC(N3CCN(C)CC3)CC2)ccc1Nc1ncc(Cl)c(Nc2ccccc2P(C)(C)=O)n1 [BRIGATINIB]	5.7 µM (active)
CCn1c(NC(=O)c2ccc(OC)c(OC)c2)nc2cc(C#N)ccc21	2.3 µM (active)
CCCS(=O)(=O)N1CCc2ccc(NC(=O)Nc3cccc(C#N)c3)cc21	10.2 µM (active)
Cc1oc2c(c1C(=O)c1ccc(Cl)cc1)C(=O)C(=O)c1ccccc1-2	31.4 µM (inactive)
O=C(Nc1ccccc1O)c1cccc(NC(=O)c2cccs2)c1	7.1 µM (active)
CNC(=O)c1c(N)sc2c1-c1ccccc1C2	19.3 µM (inactive)
COc1ccc(Nc2nc(CN3CCN(S(=O)(=O)c4cccs4)CC3)cs2)cc1	7.1 µM (active)
CCOc1ccccc1-n1c(C(C)N2CCN(C(=O)COc3ccc(Cl)cc3)CC2)nc2ccccc2c1=O (stereo not drawn) [ERASTIN]	1.8 µM (active)
CC(=O)c1ccc(N2CCN(S(=O)(=O)c3ccc4onc(C(=O)N5CCCC5)c4c3)CC2)cc1	0.9 µM (active)

Compound	CC50
Cc1cc(O)c(-c2ccc([C@@H](C)CN(C)C)cc2)c2c1[nH]c(=O)c1sccc12	0.1 µM (active)
c1ccc(CN2C[C@H]3CCNC[C@H]32)cc1	15.9 µM (inactive)
C=CC(=O)Nc1cccc(Nc2nc(Nc3ccc(OCCOC)cc3)ncc2F)c1 [SPEBRUTINIB]	1.3 µM (active)
CN(C)C1CCN(C(=O)c2ccc(NC(=O)Nc3ccc(-c4nc(N5CCOCC5)nc(N5CCOCC5)n4)cc3)cc2)CC1 [GEDATOLISIB]	1.7 µM (active)
Nc1nc(Nc2ccc3c(c2)OCCO3)nc2ccccc12	8.7 µM (active)
COc1ccc(CN2CCN(CCSC)CC2)c2c(OC)cccc12	12.6 µM (inactive)
COc1ccc(OC)c(-c2cc(C(=O)Nc3ccccn3)no2)c1	0.8 µM (inactive)
C[C@@H]1NC(C(=O)Nc2ccnc3ccnn23)=NN(c2ccccc2)C1=O	13.2 µM (active)
CCn1c(Oc2cccc3cccnc23)nc2c1c(=O)n(C)c(=O)n2C	2.9 µM (active)
COC[C@H]1OC(=O)c2coc3c2[C@@]1(C)C1=C(C3=O)[C@@H]2CCC(=O)[C@@]2(C)C[C@H]1OC(C)=O [WORTMANNIN]	7.4 µM (active)
CC[C@H]1CC[C@@H](C)N(C(=O)c2nc(C3CC3)n3ccccc23)C1	7.5 µM (active)
Clc1ccc(-c2cnc(CN3CC4(CCNCC4)[C@H]4COC[C@H]43)o2)cc1	12.8 µM (active)
O=C(Nc1ccc(Cl)c(Cl)c1)Nc1ccc(Cl)c(Cl)c1	13.1 µM (active)
O=C(Nc1nccs1)c1cccc(S(=O)(=O)N2CCc3ccccc32)c1	8.3 µM (active)
N[C@@H](CNC(=O)COc1ccc(Cl)c2ccccc12)C1CC1	24.9 µM (inactive)
C=CCn1c(=O)c2cnc(Nc3ccc(N4CCN(C)CC4)cc3)nc2n1-c1cccc(C(C)(C)O)n1 [ADAVOSERTIB]	4.5 µM (active)
COc1cc2nc(N3CCN(C(=O)c4ccco4)CC3)nc(N)c2cc1OC [PRAZOSIN HYDROCHLORIDE]	6.6 µM (active)
CCCN(CCC)C(=O)C1=Cc2ccc(-c3ccc(C(=O)N4CCCC4)cc3)cc2N=C(N)C1 [MOTOLIMOD]	11.3 µM (active)
CCc1ccc(S(=O)(=O)N2CCN(c3ccc(C(C)=O)cc3)CC2)cc1	50 µM (inactive)
CC(C)(O)CNc1ncc(-c2ccnc(Nc3ccnc(Cl)c3)n2)c(CC2CC2)n1	4 µM (active)
CCOc1cc2ccccc2cc1C(=O)NCc1ccco1	1.7 µM (active)
CNc1ncc2cc(-c3cc(NC(=O)NCCC(C)(C)C)c(F)cc3C)c(C)nc2n1 [LY-3009120]	0.4 µM (active)
